From patent publication US8575143B2, “3-aryl-substituted quinazolones, and uses thereof” (Prolexys Pharmaceuticals, Inc., priority 2005, dated 2013)
Like-named read-outs stand apart in the source and are kept apart here.

How the values were obtained:
HT-1080 cells = assay: Sytox assay, inhibition of growth of HT-1080 cells; type: cell-based; conditions: Homo sapiens, 48 hours exposure
Description: The ability of Compound 1, in DMSO, to inhibit the growth of tumor and normal cells was measured. The compound was assayed by the Sytox primary screen, a phenotypic assay which monitors alterations in cell survival-proliferation as a result of compound treatment. It was devised as high throughput method to identify compounds which specifically alter the growth potential of cells harboring the causative mutations found in cancer patients while not affecting the growth of normal cells. The assay relies upon an inexpensive, simple and reliable readout of a membrane impermeable fluorescent dye (Sytox, from Molecular Probes) which binds to nucleic acid. In healthy cells, no signal is detected because the cell's membrane is intact and the dye will not enter. However, if a cell's membrane is compromised as a result of apoptosis or necrosis, a fluorescent signal proportional to the number of similarly affected cells will be detected. By utilizing a two-step readout (final read in the presence of detergent to permit labeling of all cells), the assay can identify compounds which produce cytostasis, cytotoxicity and/or mitogenesis. The first read or “dead cell” read, provides an estimate of the toxicity of a given compound by indicating the number of dead or dying cells in the culture at the time of assay. The second read or “total cell” read, captures both the cumulative effects of cytoxicity in reducing the size of the cell population as well as any cytostatic or anti-proliferative effects a test compound may exert on the cells in the test population in the absence of toxicity.
Cells were seeded overnight in 96 well plates at densities that without treatment would permit 95% confluence in the wells 72 hours later. The following day, the cells were exposed to test compounds in a dilution series for a period of 48 hours. Following this incubation period, the Sytox reagent was added to the cultures at the manufacturer's recommended concentration and the dead cell fluorescence read was taken. After completion of this measurement, the detergent Saponin was added to each well of the cultures to permeabilize the membranes allowing the Sytox reagent to enter every cell, thereby facilitating measurement of the total number of cells remaining in the culture.
The ability of various compounds of the invention, in DMSO, to inhibit the growth of HT-1080 cells was measured. The HT-1080 cell line used in these experiments was derived from a patient with fibrosarcoma and harbors an activating mutation in the N-ras gene at codon 12. The compound was assayed using the assay described in Example 3. The results of the assay are shown in the table below, where the activity corresponds to the following ranges: A—less than 10 nM, B—10-100 nM, C—100-1000 nM, D—1000-2000 nM, E—greater than 2000 nM.

tumor cells = assay: Sytox primary screen, inhibition of growth of tumor cells; type: cell-based; conditions: compound in DMSO, 48 hours exposure, Sytox read
Description: The ability of Compound 1, in DMSO, to inhibit the growth of tumor and normal cells was measured. The compound was assayed by the Sytox primary screen, a phenotypic assay which monitors alterations in cell survival-proliferation as a result of compound treatment. It was devised as high throughput method to identify compounds which specifically alter the growth potential of cells harboring the causative mutations found in cancer patients while not affecting the growth of normal cells. The assay relies upon an inexpensive, simple and reliable readout of a membrane impermeable fluorescent dye (Sytox, from Molecular Probes) which binds to nucleic acid. In healthy cells, no signal is detected because the cell's membrane is intact and the dye will not enter. However, if a cell's membrane is compromised as a result of apoptosis or necrosis, a fluorescent signal proportional to the number of similarly affected cells will be detected. By utilizing a two-step readout (final read in the presence of detergent to permit labeling of all cells), the assay can identify compounds which produce cytostasis, cytotoxicity and/or mitogenesis. The first read or “dead cell” read, provides an estimate of the toxicity of a given compound by indicating the number of dead or dying cells in the culture at the time of assay. […]

HT-1080 xenografts = assay: HT-1080 tumor xenograft, daily IV administration for 5 days; type: in vivo; conditions: nude Balb/c mice, QD x 5 days
Description: The ability of compounds 10 and 25 to inhibit the growth of HT-1080 xenografts following daily, intravenous administration was examined using similar methods (described below). Compounds 10 and 25 were administered for 5 consecutive days and were evaluated at their respective IV MTD doses.
The HT-1080 cell line used in this xenograft study was derived from a patient with fibrosarcoma and harbors an activating mutation in the N-ras gene at codon 12. […] Robust tumor regression was observed when the compounds were administered at their respective MTD. No adverse clinical signs were observed
Nude Balb/c (Nu/Nu strain, Charles River Laboratories), female, 5-6 wks. old (˜22 g average body weight).
• A: Untreated Control, n=6 • B: Vehicle Control for Compound 10, QD×5 days, IV, n=6 • D: Compound 10 @ 25 mg/Kg (MTD), QD×5 days, IV, n=6 • E: Compound 10 @ 12.5 mg/Kg (½ MTD), QD×5 days, IV, n=6 Treatment Schedule: […]
Starting on Day 1, all animals were weighed, and tumor dimensions (L & W) were measured, every other day. […]
The resulting tumor volume values were averaged for each study group for each time point, and were then plotted against time. Variance was expressed as standard error of the mean (±SEM).

[1] = IV maximum tolerated dose (MTD); conditions: Nude Balb/c, mouse, in vivo, QD x 5 days, mice
[2] = compound in DMSO, Sytox assay of Example 3, read-out: Activity (inhibition of growth of HT-1080 cells)
[3] = Sytox read, read-out: IC50, inhibition of proliferation of HT-1080 cells

Q: For `CCOc1ccccc1-n1c(CN2CCCN(C)CC2)nc2cc(C(F)(F)F)ccc2c1=O` [Compound 16, 3-(2-ethoxyphenyl)-2-((4-methyl-1,4-diazepan-1-yl)methyl)-7-(trifluoromethyl)quinazolin-4(3H)-one], which IC50 (HT-1080 cells; [2]) is on record?
A: Its IC50 is 100 to 1000 nM.

Q: Which IC50 (HT-1080 cells; [2]) does the source give for `O=c1c2ccccc2nc(CN2CCNCC2)n1-c1ccc(OC(F)(F)F)cc1Cl` [Compound 21, 3-(2-chloro-4-(trifluoromethoxy)phenyl)-2-(piperazin-1-ylmethyl)quinazolin-4(3H)-one] here?
A: The IC50 was 100 to 1000 nM.

Q: For `CCOc1ccccc1-n1c(CN2CCCN(C)CC2)nc2cc(NCCOC)ccc2c1=O` [Compound 11, 3-(2-ethoxyphenyl)-7-(2-methoxyethylamino)-2-((4-methyl-1,4-diazepan-1-yl)methyl)quinazolin-4(3H)-one], which IC50 (HT-1080 cells; [2]) is on record?
A: The IC50 was > 2000 nM.

Q: Which IC50 (HT-1080 cells; [2]) does the source give for `CCOc1cc(F)ccc1-n1c(CN2CCCN(C)CC2)nc2cc(N)ccc2c1=O` [Compound 19, 7-amino-3-(2-ethoxy-4-fluorophenyl)-2-((4-methyl-1,4-diazepan-1-yl)methyl)quinazolin-4(3H)-one] here?
A: The IC50 was < 10 nM.

Q: For `CCOc1ccccc1-n1c(C(C)N2CCCN(C)CC2)nc2cc([N+](=O)[O-])ccc2c1=O` (centres unmarked) [Compound 12, 3-(2-ethoxyphenyl)-2-(1-(4-methyl-1,4-diazepan-1-yl)ethyl)-7-nitroquinazolin-4(3H)-one], which IC50 (HT-1080 cells; [2]) is on record?
A: Its IC50 is 100 to 1000 nM.

Q: Which IC50 (HT-1080 cells; [2]) does the source give for `O=c1c2ccccc2nc(CN2CCNCC2)n1-c1c(F)cc(F)cc1Cl` [Compound 17, 3-(2-chloro-4,6-difluorophenyl)-2-(piperazin-1-ylmethyl)quinazolin-4(3H)one] here?
A: Its IC50 is 100 to 1000 nM.

Q: For `CCOc1ccccc1-n1c(CN2CCNCC2)nc2cccc(Cl)c2c1=O` [Compound 2, 5-chloro-3-(2-ethoxyphenyl)-2-(piperazin-1-ylmethyl)quinazolin-4(3H)-one], which IC50 (HT-1080 cells; [3]) is on record?
A: Its IC50 is 100 nM.

Q: What about the IC50 (HT-1080 cells; [2]) of the same compound?
A: The IC50 was 10 to 100 nM.

Q: For `CN1CCCN(Cc2nc3ccccc3c(=O)n2-c2c(F)cc(F)cc2Cl)CC1` [Compound 18, 3-(2-chloro-4,6-difluorophenyl)-2-((4-methyl-1,4-diazepan-1-yl)methyl)quinazolin-4(3H)-one], which IC50 (HT-1080 cells; [2]) is on record?
A: The IC50 was 100 to 1000 nM.

Q: For `CCOc1ccccc1-n1c(C(C)N2CCN(C(=O)COc3ccc(Cl)cc3)CC2)nc2cc(Cl)ccc2c1=O` (centres unmarked) [Compound 1, 2-(1-(4-(2-(4-chlorophenoxy)acetyl)piperazin-1-yl)ethyl)-7-chloro-3-(2-ethoxyphenyl)quinazolin-4(3H)-one], which IC50 (tumor cells) is on record?
A: The IC50 was ~10000 nM.

Q: What does the source list for `CCOc1ccccc1-n1c(C(C)N2CCCN(C)CC2)nc2cc(N)ccc2c1=O` (centres unmarked) [Compound 10, 7-amino-3-(2-ethoxyphenyl)-2-(1-(4-methyl-1,4-diazepan-1-yl)ethyl)quinazolin-4(3H)-one]?
A: IC50 (HT-1080 cells; [2]): < 10 nM; inhibition in growth of HT-1080 cell xenograft (HT-1080 xenografts): inhibition in growth; MTD at 5 days [1]: 25 mg/kg

Q: With `Nc1ccc2c(=O)n(-c3ccc(F)cc3Cl)c(CN3CCNCC3)nc2c1` [Compound 14, 7-amino-3-(2-chloro-4-fluorophenyl)-2-(piperazin-1-ylmethyl)quinazolin-4(3H)-one] as the compound, how does the IC50 (HT-1080 cells; [2]) read?
A: Its IC50 is > 2000 nM.

Q: Which IC50 (HT-1080 cells; [2]) does the source give for `CN1CCCN(Cc2nc3cc(N)ccc3c(=O)n2-c2c(Cl)cccc2Cl)CC1` [Compound 22, 7-amino-3-(2,6-dichlorophenyl)-2-((4-methyl-1,4-diazepan-1-yl)methyl)quinazolin-4(3H)-one] here?
A: The IC50 was 100 to 1000 nM.

Q: Which IC50 (HT-1080 cells; [2]) does the source give for `CN1CCCN(Cc2nc3cc(N)ccc3c(=O)n2-c2ccc(F)cc2Cl)CC1` [Compound 13, 7-amino-3-(2-chloro-4-fluorophenyl)-2-((4-methyl-1,4-diazepan-1-yl)methyl)quinazolin-4(3H)-one] here?
A: The IC50 was > 2000 nM.

Q: With `CN1CCCN(Cc2nc3ccccc3c(=O)n2-c2ccc(OC(F)(F)F)cc2Cl)CC1` [Compound 20, 3-(2-chloro-4-(trifluoromethoxy)phenyl)-2-((4-methyl-1,4-diazepan-1-yl)methyl)quinazolin-4(3H)-one] as the compound, how does the IC50 (HT-1080 cells; [2]) read?
A: Its IC50 is 10 to 100 nM.

Q: For `CCOc1ccccc1-n1c(CN2CCCN(C)CC2)nc2cc(F)ccc2c1=O` [Compound 24, 3-(2-ethoxyphenyl)-7-fluoro-2-((4-methyl-1,4-diazepan-1-yl)methyl)quinazolin-4(3H)-one], which IC50 (HT-1080 cells; [2]) is on record?
A: Its IC50 is 100 to 1000 nM.

Q: Which IC50 (HT-1080 cells; [2]) does the source give for `CCOc1ccccc1-n1c(CN2CCCN(C)CC2)nc2cc(NCCN3CCOCC3)ccc2c1=O` [Compound 15, 3-(2-ethoxyphenyl)-2-((4-methyl-1,4-diazepan-1-yl)methyl)-7-(2-morpholinoethylamino)quinazolin-4(3H)-one] here?
A: The IC50 was 100 to 1000 nM.

Q: With `CCOc1cc([N+](=O)[O-])ccc1-n1c(CN2CCCNCC2)nc2ccccc2c1=O` [Compound 3, 2-((1,4-diazepan-1-yl)methyl)-3-(2-ethoxy-4-nitrophenyl)quinazolin-4(3H)-one] as the compound, how does the IC50 (HT-1080 cells; [3]) read?
A: The IC50 was 200 nM.

Q: What about the IC50 (HT-1080 cells; [2]) of the same compound?
A: The IC50 was 100 to 1000 nM.

Q: What does the source list for `CCOc1ccccc1-n1c(CN2CCCN(C)CC2)nc2cc(N)ccc2c1=O` [Compound 25, 7-amino-3-(2-ethoxyphenyl)-2-((4-methyl-1,4-diazepan-1-yl)methyl)quinazolin-4(3H)-one]?
A: IC50 (HT-1080 cells; [2]): < 10 nM; inhibition in growth of HT-1080 cell xenograft (HT-1080 xenografts): inhibition in growth
